The values below come from patent publication US20260159512A1, “BCAT2 INHIBITORS” (AGIOS PHARMACEUTICALS, INC., priority 2021, published 2026).

Several values for one entry are separate records, joined by “and”; a condition that tells them apart may be missing. Equal entries are not always repeated.

Assay [1] deals with T1, BCAT2 (Homo sapiens, UniProt O15382).
T1 sequence (O15382 28-392): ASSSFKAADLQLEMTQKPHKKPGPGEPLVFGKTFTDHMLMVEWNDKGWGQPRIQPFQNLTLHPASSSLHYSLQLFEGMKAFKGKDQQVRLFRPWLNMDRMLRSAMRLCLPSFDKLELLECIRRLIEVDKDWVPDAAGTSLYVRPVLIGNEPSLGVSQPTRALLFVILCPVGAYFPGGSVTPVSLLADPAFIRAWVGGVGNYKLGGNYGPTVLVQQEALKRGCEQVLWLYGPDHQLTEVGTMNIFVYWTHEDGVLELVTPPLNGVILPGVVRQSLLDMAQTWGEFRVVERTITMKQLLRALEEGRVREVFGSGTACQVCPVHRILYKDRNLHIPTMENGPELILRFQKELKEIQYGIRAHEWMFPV
Put plainly: BCAT2 in vitro cell inhibition using engineered A549 cells (KMV cell assay, 13C6-KMV by LC-MS/MS). It counts as cell-based. Set-up: The result was an engineered A549 cell line that expressed endogenous BCAT2; endogenous in cells; host or cells: A549 cells with MUT and BCAT1 knocked out by CRISPR/CAS9; key to BCAT2 Cell Inhibition: A: less than or equal to 0.100 μM; B: greater than 0.100 and less than or equal to 0.500 μM; C: greater than 0.500 and less than or equal to 1.000 μM; d: greater than 1.000 μM; E: no fit. To be noted: average where tested multiple times.

Assay [2] addresses T1, BCAT2. Put plainly: BCAT2 in vitro enzyme inhibition assay (resazurin/diaphorase-coupled fluorescence). Type of assay: biochemical. To be noted: average where tested multiple times. As for the experimental part:
BCAT2 In Vitro Enzyme Inhibition Assay
1.67× hBCAT2 Enzyme Mix: 0.33 μg/mL hBCAT2, 1× Buffer
2.5× Substrate Mix: 460 μM L-leucine, 420 μM α-KetoGlutarate, 10 U/mL glutamate dehydrogenase, 10 mM NAD, 30 μg/mL diaphorase, 20 μm Resazurin
BCAT2 enzyme stock solution was diluted to prepare a 1.67× hBCAT2 Enzyme Mix. 1 μL of test compound was first added to the reaction wells followed by 30 μL of 1.67× hBCAT2 Enzyme Mix and incubated at room temperature (25° C.) for one hour. Meanwhile the Substrate Mix was prepared. The reaction was initiated by the addition of 20 μL of the 2.5× Substrate Mix, bringing the final reaction mix of all components to 1×. Reactions were quenched after one hour by the addition of 25 μL of 6% SDS and reaction progress was measured via fluorescence read (Ex 540/Em 590).
Test Compound Preparation:
Test compounds were prepared at 50× final concentration in DMSO, 1 to 3 dilutions were made for 10 points. The compounds were added to the assay as a 1 to 50 dilution (1 μL in 50 μL) to yield a top assay final concentration of 100 μM, decreasing 3-fold for 10 points. Each compound dilution series test also included an assay max (1 μL DMSO Added in lieu of compound, Full Reaction Components Included) and Min (1 μL DMSO Added in lieu of compound, 30 μl of 1.67× hBCAT2 Enzyme Mix replated by 30 μL of 1× Buffer). All tests were performed in technical duplicate.
Where a compound was tested multiple times, the average value of the tests is reported.
(Alamar Blue is a resazurin reagent that responds to reducing activity.)

For the compound `CCn1c(CO)nn(-c2cc3c(cn2)nc(CC(C)C)n3[C@@H]2CCC[C@H](NC(=O)c3ccc(Cl)s3)C2)c1=O` [Example 373, 5-chloro-N-((1S,3R)-3-(6-(4-ethyl-3-(hydroxymethyl)-5-oxo-4,5-dihydro-1H-1,2,4-triazol-1-yl)-2-isobutyl-1H-imidazo[4,5-c]pyridin-1-yl)cyclohexyl)thiophene-2-carboxamide], the values for the IC50 in assay [1] and in assay [2] were over 1000 nM and at most 100 nM, respectively.
Regarding `CC(C)Cc1nc2cnc(N3CCC[C@@H]3C(C)(C)O)cc2n1[C@@H]1CCC[C@H](NC(=O)c2ncc(Cl)s2)C1` [Example 304, 5-chloro-N-((1S,3R)-3-(6-((R)-2-(2-hydroxypropan-2-yl)pyrrolidin-1-yl)-2-isobutyl-1H-imidazo[4,5-c]pyridin-1-yl)cyclohexyl)thiazole-2-carboxamide], the “BCAT2 Cell Inhibition” value in assay [1] is listed as “E”. Also, the IC50 (as a rule, the concentration at which inhibition is half-maximal) in assay [2] is over 1000 nM.
As to `CC(C)Cc1nc2cnc(-c3cccc(C#N)n3)cc2n1[C@H]1CCC[C@@H](NC(=O)c2ncc(Cl)s2)[C@@H]1O` [Example 391, 5-chloro-N-((1R,2S,3S)-3-(6-(6-cyanopyridin-2-yl)-2-isobutyl-1H-imidazo[4,5-c]pyridin-1-yl)-2-hydroxycyclohexyl)thiazole-2-carboxamide], the “BCAT2 Cell Inhibition” value in assay [1] is “E”. This compound also yielded an IC50 in assay [2] of over 1000 nM.
For `O=C(O)CCc1ccccc1-c1nc2cnc(-n3nccn3)cc2n1[C@@H]1CCC[C@H](NC(=O)c2ncc(C(F)F)s2)C1` [Example 100, 3-(2-(1-((1R,3S)-3-(5-(difluoromethyl)thiazole-2-carboxamido)cyclohexyl)-6-(2H-1,2,3-triazol-2-yl)-1H-imidazo[4,5-c]pyridin-2-yl)phenyl)propanoic acid] the same measures were “E” and 500 to 1000 nM.
For `CC(C)Cc1nc2cnc(-c3cccc(F)n3)cc2n1[C@H]1CCC[C@@H](NC(=O)c2ncc(Cl)s2)[C@@H]1O` [Example 208, 5-chloro-N-((1R,2S,3S)-3-(6-(6-fluoropyridin-2-yl)-2-isobutyl-1H-imidazo[4,5-c]pyridin-1-yl)-2-hydroxycyclohexyl)thiazole-2-carboxamide] the same measures were “E” and over 1000 nM.
For the compound `CC(C)Cc1nc2cnc(-c3cccc(F)n3)cc2n1[C@@H]1C[C@@H](O)C[C@H](NC(=O)c2ncc(Cl)s2)C1` (stereo in doubt) [Example 384, 5-chloro-N-((1R,3S,5S)-3-(6-(6-fluoropyridin-2-yl)-2-isobutyl-1H-imidazo[4,5-c]pyridin-1-yl)-5-hydroxycyclohexyl)thiazole-2-carboxamide], the IC50 in assay [1] and in assay [2] was over 1000 nM each time.
Take `Cc1cnn(-c2cc3c(cn2)nc(-c2ccccc2F)n3[C@H]2CCC[C@@H](NC(=O)c3ncc(Cl)s3)[C@@H]2O)n1` [Example 247, 5-chloro-N-((1R,2S,3S)-3-(2-(2-fluorophenyl)-6-(4-methyl-2H-1,2,3-triazol-2-yl)-1H-imidazo[4,5-c]pyridin-1-yl)-2-hydroxycyclohexyl)thiazole-2-carboxamide]: the IC50 in assay [1] and in assay [2] was 500 to 1000 nM throughout.
For the compound `O=C(N[C@@H]1C[C@@H](O)C[C@H](n2c(-c3ccccc3F)nc3cnccc32)C1)c1ncc(Cl)s1` [Example 271, 5-chloro-N-((1S,3R,5R)-3-(2-(2-fluorophenyl)-1H-imidazo[4,5-c]pyridin-1-yl)-5-hydroxycyclohexyl)thiazole-2-carboxamide], in assay [1], the “BCAT2 Cell Inhibition” value is given as “E”. The same compound gave a half-inhibitory concentration (IC50) in assay [2] of over 1000 nM.
As for `CO[C@@H]1C[C@H](NC(=O)c2ncc(Cl)s2)C[C@H](n2c(-c3ccccc3F)nc3cnc(-c4nc[nH]n4)cc32)C1` (stereo in doubt) [Example 419, 5-chloro-N-((1R,3S,5R)-3-(2-(2-fluorophenyl)-6-(1H-1,2,4-triazol-3-yl)-1H-imidazo[4,5-c]pyridin-1-yl)-5-methoxycyclohexyl)thiazole-2-carboxamide], the IC50 in assay [1] was ≤ 100 nM and 100 to 500 nM; in assay [2] it was at most 100 nM.
Regarding `CC(C)Oc1nc2cnc(-n3ccnn3)cc2n1[C@@H]1CCC[C@H](NC(=O)c2ncc(C(F)F)s2)C1` [Example 97, 5-(difluoromethyl)-N-((1S,3R)-3-(2-isopropoxy-6-(1H-1,2,3-triazol-1-yl)-1H-imidazo[4,5-c]pyridin-1-yl)cyclohexyl)thiazole-2-carboxamide], the “BCAT2 Cell Inhibition” value in assay [1] was “E”. Also, the IC50 in assay [2] is over 1000 nM.
For the compound `O=C(N[C@@H]1C[C@@H](O)C[C@H](n2c(-c3ccccc3F)nc3cnc(-c4ccccn4)cc32)C1)c1ncc(Cl)s1` [Example 253, 5-chloro-N-((1S,3R,5R)-3-(2-(2-fluorophenyl)-6-(pyridin-2-yl)-1H-imidazo[4,5-c]pyridin-1-yl)-5-hydroxycyclohexyl)thiazole-2-carboxamide], the concentration for half-maximal inhibition (IC50) in assay [1] and in assay [2] was 100 to 500 nM in each case.
On to `CS(=O)(=O)N1C[C@@H](NC(=O)c2ccc(Cl)s2)C[C@@H](n2c(-c3ccccc3F)nc3cnc(-c4nc[nH]n4)cc32)C1` [Example 459, 5-chloro-N-((3S,5R)-5-(2-(2-fluorophenyl)-6-(1H-1,2,4-triazol-3-yl)-1H-imidazo[4,5-c]pyridin-1-yl)-1-(methylsulfonyl)piperidin-3-yl)thiophene-2-carboxamide], for which the values for the concentration for half-maximal inhibition (IC50) in assay [1] and in assay [2] were 100 to 500 nM and at most 100 nM, respectively.
With `COC(=O)N[C@H](c1nc2cnc(-c3nc[nH]n3)cc2n1[C@@H]1CCC[C@H](NC(=O)c2ncc(Cl)s2)C1)C(C)C` [Example 370, methyl ((S)-1-(1-((1R,3S)-3-(5-chlorothiazole-2-carboxamido)cyclohexyl)-6-(1H-1,2,4-triazol-3-yl)-1H-imidazo[4,5-c]pyridin-2-yl)-2-methylpropyl)carbamate], the “BCAT2 Cell Inhibition” value in assay [1] is given as “E”. Also, the IC50 in assay [2] was over 1000 nM.
For `CC(C)Cc1nc2cnc(-c3ccccc3C#N)cc2n1[C@@H]1CCC[C@H](NC(=O)c2ncc(Cl)s2)C1` [Example 335, 5-chloro-N-((1S,3R)-3-(6-(2-cyanophenyl)-2-isobutyl-1H-imidazo[4,5-c]pyridin-1-yl)cyclohexyl)thiazole-2-carboxamide] the same measures were “E” and 100 to 500 nM.
As to `CC(C)Cc1nc2cnc(-c3ccccc3CO)cc2n1[C@@H]1CCC[C@H](NC(=O)c2ncc(Cl)s2)C1` [Example 205, 5-chloro-N-((1S,3R)-3-(6-(2-(hydroxymethyl)phenyl)-2-isobutyl-1H-imidazo[4,5-c]pyridin-1-yl)cyclohexyl)thiazole-2-carboxamide], in assay [1], the “BCAT2 Cell Inhibition” value was “E”. This compound returned an IC50 in assay [2] of over 1000 nM.
For `CC(C)C(F)(F)c1nc2cnc(-c3ccccn3)cc2n1[C@@H]1CCC[C@H](NC(=O)c2ncc(Cl)s2)C1` [Example 318, 5-chloro-N-((1S,3R)-3-(2-(1,1-difluoro-2-methylpropyl)-6-(pyridin-2-yl)-1H-imidazo[4,5-c]pyridin-1-yl)cyclohexyl)thiazole-2-carboxamide] the same measures were “E” and 500 to 1000 nM.
For `CC(C)Cc1nc2cnc(-c3ccccn3)cc2n1[C@H]1CCC[C@@H](NC(=O)c2ncc(Cl)s2)[C@@H]1O` [Example 236, 5-chloro-N-((1R,2S,3S)-2-hydroxy-3-(2-isobutyl-6-(pyridin-2-yl)-1H-imidazo[4,5-c]pyridin-1-yl)cyclohexyl)thiazole-2-carboxamide] the same measures were “E” and 500 to 1000 nM.
For `CC(C)Cc1nc2cnc(-c3ccccn3)cc2n1[C@@H]1C[C@H](NC(=O)c2ncc(Cl)s2)CN(C)C1` [Example 263, 5-chloro-N-((3S,5R)-5-(2-isobutyl-6-(pyridin-2-yl)-1H-imidazo[4,5-c]pyridin-1-yl)-1-methylpiperidin-3-yl)thiazole-2-carboxamide] the same measures were “E” and over 1000 nM.
